Data: ChEMBL document CHEMBL1149437, “1-Alkyl-benzotriazole-5-carboxylic acids are highly selective agonists of the human orphan G-protein-coupled receptor GPR109b” (J Med Chem, 2006)
Active and inactive are the calls of the source. The rule behind the calls is not given here.

Experiments:
[1] = target: Hydroxycarboxylic acid receptor 2 (Mus musculus) (UniProt Q9EP66); test: Activity against GPR109a upto 100 uM; type: functional
[2] = target: Hydroxycarboxylic acid receptor 3 (Homo sapiens, UniProt P49019); test: Agonistic activity at GPR109b by cAMP whole cell assay; type: functional
Chain of Hydroxycarboxylic acid receptor 3 (P49019 whole entry): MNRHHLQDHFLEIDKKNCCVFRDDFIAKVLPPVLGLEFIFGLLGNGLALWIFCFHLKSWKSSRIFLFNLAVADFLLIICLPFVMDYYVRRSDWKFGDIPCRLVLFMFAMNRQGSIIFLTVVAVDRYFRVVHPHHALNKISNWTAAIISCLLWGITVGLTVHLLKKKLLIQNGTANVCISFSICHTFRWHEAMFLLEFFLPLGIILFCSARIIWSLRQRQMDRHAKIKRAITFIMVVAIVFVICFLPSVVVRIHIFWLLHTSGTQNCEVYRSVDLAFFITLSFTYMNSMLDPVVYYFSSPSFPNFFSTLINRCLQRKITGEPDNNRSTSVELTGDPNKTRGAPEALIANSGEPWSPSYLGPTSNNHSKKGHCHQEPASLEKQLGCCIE

[3] = target: Adrenergic receptor beta (Homo sapiens) (UniProt P08588+P07550+P13945); test: Activity against beta adrenergic receptor; type: protein assay

Chain of Hydroxycarboxylic acid receptor 2 (Mus musculus) (Q9EP66 whole entry): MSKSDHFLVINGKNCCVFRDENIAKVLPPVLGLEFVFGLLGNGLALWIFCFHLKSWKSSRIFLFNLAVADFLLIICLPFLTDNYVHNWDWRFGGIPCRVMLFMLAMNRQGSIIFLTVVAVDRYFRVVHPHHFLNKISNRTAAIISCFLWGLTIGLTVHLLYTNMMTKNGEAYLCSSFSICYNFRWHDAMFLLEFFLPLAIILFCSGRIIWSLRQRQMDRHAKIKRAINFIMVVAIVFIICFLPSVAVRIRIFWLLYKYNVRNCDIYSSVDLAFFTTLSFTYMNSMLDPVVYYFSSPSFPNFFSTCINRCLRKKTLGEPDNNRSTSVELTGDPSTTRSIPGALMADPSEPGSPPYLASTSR

Compound | Activity [1] | EC50 [2] [nM] | Log EC50 [2] | Activity [3]
CC(C)(C)n1nnc2cc(C(=O)O)ccc21 | inactive | 257 |  | 
O=C(O)c1ccc2c(c1)nnn2C1CCC1 | inactive | 3090 |  | 
CCCn1nnc2cc(C(=O)O)ccc21 | inactive | 7410 |  | 
CCCCCn1nnc2cc(C(=O)O)ccc21 | inactive | 288 |  | 
CCSCCn1nnc2cc(C(=O)O)ccc21 | inactive | 302 |  | 
COCC(C)n1nnc2cc(C(=O)O)ccc21 (centres undefined) | inactive | 200 |  | 
O=C(O)c1ccc2c(c1)nnn2C1CC1 | inactive | 2340 |  | 
O=C(O)c1ccc2c(c1)nnn2-c1ccccc1 | inactive |  | inactive | 
O=C(O)c1ccc2c(c1)nnn2C(c1ccccc1)c1ccccc1 | inactive | > 10000 |  | 
CCCCn1nnc2cc(C(=O)O)ccc21 | inactive | 692 |  | 
C=CCn1nnc2cc(C(=O)O)ccc21 | inactive |  | inactive | 
O=C(O)c1ccc2[nH]nnc2c1 | inactive |  | inactive | 
O=C(O)c1ccc2c(c1)nnn2C1CCCC1 | inactive | 1100 |  | 
CCOCCn1nnc2cc(C(=O)O)ccc21 | inactive | 257 |  | 
Cn1nnc2cc(C(=O)O)ccc21 | inactive | 2000 |  | 
O=C(O)c1ccc2c(c1)nnn2Cc1ccccc1 | inactive | 9120 |  | 
COCCn1nnc2cc(C(=O)O)ccc21 | inactive | 316 |  | 
CC(C)n1nnc2cc(C(=O)O)ccc21 | inactive | 398 |  | inactive
CCC(CC)n1nnc2cc(C(=O)O)ccc21 | inactive | 3020 |  | 
O=C(O)c1ccc2c(c1)nnn2Cc1cc(F)cc(F)c1 | inactive | > 10000 |  | 
COc1ccc(Cn2nnc3cc(C(=O)O)ccc32)cc1 | inactive |  | inactive | 
O=C(O)c1ccc2c(c1)nnn2CC1CC1 | inactive |  | inactive | 
CC(C)n1cnc2cc(C(=O)O)ccc21 | inactive | 3390 |  | 
CCn1nnc2cc(C(=O)O)ccc21 | inactive | 891 |  | 
CCC(C)n1nnc2cc(C(=O)O)ccc21 (centres undefined) | inactive | 331 |  | 
CC(C)n1nnc2cc(-c3nn[nH]n3)ccc21 | inactive |  | inactive | 
COc1cccc(Cn2nnc3cc(C(=O)O)ccc32)c1 | inactive | 5010 |  | 
O=C(O)c1ccc2c(c1)nnn2C1CCCCC1 | inactive | 5890 |  | 
Cc1nc2cc(C(=O)O)ccc2n1C(C)C | inactive |  | inactive | 
